Literature values as cited in patent US6750247B2, “Sponge-derived terpenoids and methods of use” (Galileo Laboratories, Inc., priority 2001, dated 2004).

Target: T1, lipoxygenase (Homo sapiens, UniProt P09917)
T1 sequence (P09917 1-674): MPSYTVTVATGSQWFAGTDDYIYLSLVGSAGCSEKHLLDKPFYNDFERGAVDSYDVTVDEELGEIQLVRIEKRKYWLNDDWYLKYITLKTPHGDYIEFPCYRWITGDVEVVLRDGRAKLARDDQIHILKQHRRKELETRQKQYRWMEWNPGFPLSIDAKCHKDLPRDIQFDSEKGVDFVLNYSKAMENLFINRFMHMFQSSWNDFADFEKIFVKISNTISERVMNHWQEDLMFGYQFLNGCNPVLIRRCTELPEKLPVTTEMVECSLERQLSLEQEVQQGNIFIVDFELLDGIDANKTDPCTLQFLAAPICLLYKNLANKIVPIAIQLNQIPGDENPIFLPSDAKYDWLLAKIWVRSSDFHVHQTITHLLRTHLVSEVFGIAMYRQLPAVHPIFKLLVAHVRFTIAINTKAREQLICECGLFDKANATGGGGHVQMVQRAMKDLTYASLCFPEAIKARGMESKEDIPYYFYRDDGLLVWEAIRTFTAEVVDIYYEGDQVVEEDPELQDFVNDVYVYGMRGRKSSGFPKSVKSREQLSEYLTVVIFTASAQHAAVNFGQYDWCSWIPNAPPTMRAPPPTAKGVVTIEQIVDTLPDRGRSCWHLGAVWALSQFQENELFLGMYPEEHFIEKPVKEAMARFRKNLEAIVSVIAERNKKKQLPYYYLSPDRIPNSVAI
Conditions: Cabre et al., Inflamm. Res. 1996; cited from earlier work

CC1=C(CC/C(C)=C/CCC2=CC[C@H](C3=CC(=O)O[C@H]3O)O[C@H]2O)C(C)(C)CCC1 [manoalide]
lipoxygenase inhibitory properties: no lipoxygenase inhibitory properties
